# Counter-ions that a name gives are not always drawn. Activity calls are given as the source filed them.
# Tests used:
# HeLa = assay: HeLa cell cytotoxicity, dose response, cytotoxicity control, 24 h, cherry-picked samples (AID 504726); type: functional, cell-based, Homo sapiens; details: Homo sapiens, 24 h;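 also: potency for cytotoxicity as loss of luminescence signal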
# P388/ADR = assay: cells; type: functional; details: Mus musculus
# SN12K1 = assay: cells; type: functional; details: Homo sapiens
# P388 = assay: cells; type: functional; details: Mus musculus
# [1] = biological target: T1, Small ubiquitin-related modifier 1 (Homo sapiens, UniProt P63165); assay: inhibitors of SUMO1 peptide binding, dose response, biochemical, fluorescence polarization, uHTS hits (AID 624382); type: functional; details: read-out: IC50_Mean
# T1 sequence (P63165 whole entry): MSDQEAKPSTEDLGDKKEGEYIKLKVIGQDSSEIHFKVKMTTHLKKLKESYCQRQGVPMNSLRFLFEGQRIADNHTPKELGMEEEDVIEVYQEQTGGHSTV
# [2] = biological target: T1, Small ubiquitin-related modifier 1; assay: inhibitors of SUMO1 partner interactions, dose response, biochemical, FRET (AID 624383); type: functional; details: read-out: IC50_Mean
# [3] = HeLa cell cytotoxicity, dose response, cytotoxicity control for MgcRacGAP inhibitor project (AID 624300); type: functional
# [4] = biological target: T2, Rac GTPase-activating protein 1 (Homo sapiens, UniProt Q9H0H5); assay: MgcRacGAP GTPase-activating activity inhibitors, confirmation, biochemical, ADP Hunter fluorescence, primary and confirmatory (AID 624330); type: functional
# T2 sequence (Q9H0H5 whole entry): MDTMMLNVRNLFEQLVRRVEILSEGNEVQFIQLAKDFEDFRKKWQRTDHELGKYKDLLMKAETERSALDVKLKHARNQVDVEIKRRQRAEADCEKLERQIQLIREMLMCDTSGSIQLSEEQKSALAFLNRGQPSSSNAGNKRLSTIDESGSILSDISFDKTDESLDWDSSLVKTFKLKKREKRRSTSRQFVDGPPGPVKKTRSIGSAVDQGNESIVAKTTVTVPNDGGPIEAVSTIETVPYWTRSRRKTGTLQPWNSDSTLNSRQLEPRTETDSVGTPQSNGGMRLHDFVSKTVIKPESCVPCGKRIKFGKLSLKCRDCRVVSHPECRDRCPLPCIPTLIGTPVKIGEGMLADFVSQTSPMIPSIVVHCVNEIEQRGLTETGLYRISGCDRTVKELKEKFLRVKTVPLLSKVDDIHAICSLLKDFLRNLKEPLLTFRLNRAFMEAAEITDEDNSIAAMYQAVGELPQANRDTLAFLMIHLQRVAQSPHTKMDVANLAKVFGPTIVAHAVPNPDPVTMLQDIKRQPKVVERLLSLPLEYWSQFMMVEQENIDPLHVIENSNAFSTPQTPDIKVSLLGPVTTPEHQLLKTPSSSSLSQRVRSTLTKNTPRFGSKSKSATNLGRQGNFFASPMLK
# [5] = biological target: DNA repair protein RAD52 homolog (Homo sapiens, UniProt P43351); type: functional, biochemical
# Sequence of DNA repair protein RAD52 homolog (P43351 whole entry): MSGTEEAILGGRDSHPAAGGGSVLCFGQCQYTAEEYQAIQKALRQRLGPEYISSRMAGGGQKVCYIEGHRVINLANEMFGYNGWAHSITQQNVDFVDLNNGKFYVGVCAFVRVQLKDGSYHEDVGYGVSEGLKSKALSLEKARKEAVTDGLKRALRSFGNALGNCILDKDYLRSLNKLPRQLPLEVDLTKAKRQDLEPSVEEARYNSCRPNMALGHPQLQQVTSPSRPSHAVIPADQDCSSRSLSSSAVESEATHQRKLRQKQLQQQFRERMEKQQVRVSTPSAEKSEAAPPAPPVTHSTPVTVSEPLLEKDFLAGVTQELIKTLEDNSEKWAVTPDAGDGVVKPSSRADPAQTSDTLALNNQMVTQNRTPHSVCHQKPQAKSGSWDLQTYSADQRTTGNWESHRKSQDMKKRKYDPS
# [6] = cytotoxicity in HEK-293T cells, dose response, cytotoxicity control for TCR NF-kB inhibitor project, luminescence, T-cell screen hits (AID 489026); type: functional, cell-based;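 also: cells exposed to compound about 14 hours before the viability readout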
# Galanin receptor type 3 = Galanin receptor type 3 (Homo sapiens, UniProt O60755); assay: Fluorescence-based cell-based primary high throughput dose response assay to identify antagonists of the Galanin Receptor 3 (GalR3).; type: functional
# Sequence of Galanin receptor type 3 (O60755 whole entry): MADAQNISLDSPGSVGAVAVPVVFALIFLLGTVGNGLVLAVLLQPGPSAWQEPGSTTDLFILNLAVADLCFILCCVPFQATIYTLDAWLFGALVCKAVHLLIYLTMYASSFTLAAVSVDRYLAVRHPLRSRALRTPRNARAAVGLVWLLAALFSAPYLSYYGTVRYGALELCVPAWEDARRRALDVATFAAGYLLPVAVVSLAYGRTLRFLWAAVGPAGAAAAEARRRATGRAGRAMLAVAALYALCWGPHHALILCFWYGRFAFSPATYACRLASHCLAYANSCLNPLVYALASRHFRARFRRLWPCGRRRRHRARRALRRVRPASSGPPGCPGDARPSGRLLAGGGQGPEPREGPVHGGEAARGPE
# cells [7] = type: functional, cell-based; details: HEK-CNG
# Vero = assay: Vero cell toxicity, dose response, cytotoxicity control, plate reader, cherry-pick samples (AID 687020); type: functional, cell-based; details: Chlorocebus sabaeus
# cells [8] = type: functional, cell-based
# [9] = biological target: T3, Trace amine-associated receptor 1 (Homo sapiens, UniProt Q96RJ0); assay: Fluorescence-based cell-based high throughput dose response assay to identify agonists of the human trace amine associated receptor 1 (TAAR1).; type: functional
# T3 sequence (Q96RJ0 whole entry): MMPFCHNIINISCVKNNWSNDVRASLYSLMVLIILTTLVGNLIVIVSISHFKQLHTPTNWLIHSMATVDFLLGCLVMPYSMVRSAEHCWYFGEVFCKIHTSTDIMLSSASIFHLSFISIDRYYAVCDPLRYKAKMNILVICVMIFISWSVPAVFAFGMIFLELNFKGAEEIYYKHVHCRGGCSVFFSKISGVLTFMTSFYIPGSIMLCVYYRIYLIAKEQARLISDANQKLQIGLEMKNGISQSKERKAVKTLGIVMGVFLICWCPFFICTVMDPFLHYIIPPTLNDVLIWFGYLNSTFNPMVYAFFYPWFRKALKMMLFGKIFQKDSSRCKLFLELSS
# [10] = biological target: T3, Trace amine-associated receptor 1; assay: Counterscreen for agonists of the human trace amine associated receptor 1 (hTAAR1): Fluorescence-based cell-based high throughput dose response assay to identify hTAAR1 agonist that also desensitize TAAR1 receptor response.; type: functional
# cells [11] = type: functional, cell-based; remark: listed apart in the source
# Cytochrome P450 3A4 = Cytochrome P450 3A4 (Homo sapiens, UniProt P08684); details: Potency;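 also: confirmatory qHTS run detecting inhibitors and substrates of CYP3A4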
# Sequence of Cytochrome P450 3A4 (P08684 whole entry): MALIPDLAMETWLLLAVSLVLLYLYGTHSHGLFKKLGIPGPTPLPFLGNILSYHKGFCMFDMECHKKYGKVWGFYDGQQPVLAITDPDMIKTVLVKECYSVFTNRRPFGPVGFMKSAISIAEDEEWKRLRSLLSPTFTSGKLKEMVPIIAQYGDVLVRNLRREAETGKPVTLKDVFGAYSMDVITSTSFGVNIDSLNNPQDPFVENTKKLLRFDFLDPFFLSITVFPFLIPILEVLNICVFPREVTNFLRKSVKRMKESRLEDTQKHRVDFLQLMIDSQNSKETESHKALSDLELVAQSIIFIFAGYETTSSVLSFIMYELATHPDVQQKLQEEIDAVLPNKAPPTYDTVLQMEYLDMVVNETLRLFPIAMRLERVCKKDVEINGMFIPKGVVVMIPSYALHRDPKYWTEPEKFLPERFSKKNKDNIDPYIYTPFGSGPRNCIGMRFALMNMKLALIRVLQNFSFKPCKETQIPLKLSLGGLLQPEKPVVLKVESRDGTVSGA
# Mu-type opioid receptor = Mu-type opioid receptor (Homo sapiens, UniProt P35372); type: functional, cell-based;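 also: U2OS cells with beta-arrestin recruitment to OPRM1 by beta-gal complementation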
# Sequence of Mu-type opioid receptor (P35372 whole entry): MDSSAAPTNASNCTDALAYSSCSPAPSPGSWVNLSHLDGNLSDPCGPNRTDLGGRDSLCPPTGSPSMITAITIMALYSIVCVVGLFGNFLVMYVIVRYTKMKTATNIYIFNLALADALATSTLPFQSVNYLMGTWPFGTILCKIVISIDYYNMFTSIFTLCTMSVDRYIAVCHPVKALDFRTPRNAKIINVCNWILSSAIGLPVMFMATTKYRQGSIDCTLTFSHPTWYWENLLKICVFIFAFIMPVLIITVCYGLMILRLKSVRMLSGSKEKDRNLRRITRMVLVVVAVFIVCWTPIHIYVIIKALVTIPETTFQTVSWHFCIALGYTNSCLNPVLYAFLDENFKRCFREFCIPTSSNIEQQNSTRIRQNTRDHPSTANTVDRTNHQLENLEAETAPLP
# [12] = biological target: 5-hydroxytryptamine receptor 2A (Mus musculus, UniProt P35363); type: functional, cell-based;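 also: CHO-K1 cells with tagged receptor and beta-arrestin; agonist potency measured as compound-induced activation of the receptor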
# Sequence of 5-hydroxytryptamine receptor 2A (P35363 whole entry): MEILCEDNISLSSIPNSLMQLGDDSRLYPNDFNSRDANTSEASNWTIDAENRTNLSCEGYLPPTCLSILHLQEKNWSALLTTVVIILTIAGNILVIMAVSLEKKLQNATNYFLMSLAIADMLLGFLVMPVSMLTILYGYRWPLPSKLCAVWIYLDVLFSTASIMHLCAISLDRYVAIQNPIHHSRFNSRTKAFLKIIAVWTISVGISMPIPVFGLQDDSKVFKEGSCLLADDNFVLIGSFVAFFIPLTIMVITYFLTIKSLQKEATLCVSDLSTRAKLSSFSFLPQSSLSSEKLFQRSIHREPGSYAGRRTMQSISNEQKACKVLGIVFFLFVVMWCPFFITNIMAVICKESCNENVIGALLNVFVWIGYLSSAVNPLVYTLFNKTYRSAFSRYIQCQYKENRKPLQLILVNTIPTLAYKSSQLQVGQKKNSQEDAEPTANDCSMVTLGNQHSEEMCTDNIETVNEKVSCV
compound,measurement,setting,value
COc1ccc2[nH]c3c(C)c4cc[n+](C)cc4c(C)c3c2c1,AC50,HeLa,65.2 µM (active)
same,GI50,P388/ADR,55.8 µM (inactive)
same,GI50,SN12K1,0.203 µM (active)
same,GI50,P388,0.773 µM (active)
same,IC50,[1],> 66.6 µM (inactive)
same,IC50,[2],9.55 µM (active)
same,CC50,[3],100 µM (active)
same,IC50,[4],24.7 µM (active)
same,AC50,[5],< 0.15 µM (active)
CCCCc1ccc(NC(=O)c2ccc(N(C)S(C)(=O)=O)cc2)cc1,IC50,[6],> 80 µM (inactive)
same,IC50,Galanin receptor type 3,0.996 µM (active)
same,EC50,cells [7],> 29.9 µM (inactive)
CC1(C(=O)NCc2cccc(C(F)(F)F)c2)CCN1Cc1cc2ccccc2o1 (stereo not given),AC50,Vero,20.4 µM (active)
NCC(=O)c1ccccc1 [PHENACYLAMINE HYDROCHLORIDE],IC50,cells [8],> 29.9 µM (inactive)
same,EC50,[9],1.08 µM (active)
same,IC50,[10],7.42 µM (active)
same,EC50,cells [11],> 29.9 µM (inactive)
same,AC50,Cytochrome P450 3A4,6.31 µM (inconclusive)
Cc1ccc(C)c(CN2CCN(c3ncccn3)CC2)c1,EC50,Mu-type opioid receptor,92.4 µM (inactive)
same,EC50,[12],76 µM (inactive)
